The target of the assay is T1, 20S proteasome chymotrypsin-like (CT-like) peptidase (Homo sapiens, UniProt P28074).
T1 construct: gene PSMB5; purified human 20S proteasomes; with 20S proteasome
T1 sequence (P28074 60-263): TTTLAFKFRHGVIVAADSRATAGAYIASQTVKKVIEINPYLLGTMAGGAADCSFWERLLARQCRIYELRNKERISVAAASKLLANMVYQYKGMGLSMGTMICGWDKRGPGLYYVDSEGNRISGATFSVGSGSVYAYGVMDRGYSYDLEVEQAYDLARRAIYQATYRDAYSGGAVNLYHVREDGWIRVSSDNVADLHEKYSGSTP
Put plainly: fluorogenic Suc-LLVY-AMC peptidase assay on purified human. The class given is biochemical.

Molecules are shown by their SMILES. pIC50: −log10 of the molar value.

`C=CC1=C(C)/C(=C/c2[nH]c(Cc3[nH]c(/C=C4\NC(=O)C(C)=C4C=C)c(C)c3CCC(=O)O)c(CCC(=O)O)c2C)NC1=O` [Bil, bilirubin] showed a pIC50 of roughly 4.70.

(Values after PMC5520929, “Bilirubin neurotoxicity is associated with proteasome inhibition” (Cell Death & Disease, 2017).)
